Article PMC7321403, “Synthesis and In Vitro Cytotoxicity and Antibacterial Activity of Novel 1,2,3-Triazol-5-yl-Phosphonates” (Molecules, 2020)
Where two headings read alike, the source gives them in different places.

Tests used:
[1] = tested on: B. subtilis-GFP; test: Antibacterial activity on GFP producing Gram-positive bacteria (fluorimetry); type: cell-based, Bacillus subtilis; details: GFP fluorescence, 1–30 µM tested, mean ± SD
Protocol: (§1) Finally, the biological activity of the synthesized 1,2,3-triazol-5-yl-phosphonates (8, 11–26) was investigated. On the one hand, the antibacterial activity of the compounds was tested on GFP producing Gram-positive (Bacillus subtilis) and Gram-negative (Escherichia coli) bacterial cells. The GFP producing bacteria are an effective tool for screening for antibacterial activity since GFP signal measured via fluorimetry is proportional to the number of bacterial cells. Active compounds would kill bacterial cells, which results in the decrease in GFP fluorescence signal, therefore it is suitable for evaluating the antimicrobial effect of different agents. On the other hand, in vitro cytotoxicity assessments were performed on three different cell lines, such as human lung adenocarcinoma (A549), mouse fibroblast (NIH/3T3) as healthy cell line and human promyelocytic leukemia (HL-60). Table 3 contains the determined IC50 values in antimicrobial and cytotoxicity assays. According to the results, only modest antibacterial activity was detected against the more sensitive Bacillus subtilis strain.
(§2) All reagents were purchased from Sigma-Aldrich (Hungary, Budapest). E. coli-GFP and B. subtilis-GFP bacteria were grown in Lysogeny Broth (Luria-Bertani broth, LB, 10 g tryptone, 5 g yeast extract, 10 g/L NaCl, pH 7.0) medium overnight (ON) at 37 °C in an incubator with continuous shaking. The ON bacterial culture was diluted (E. coli-GFP: 1:10000, B. subtilis-GFP: 1:1000) in LB medium containing 10 µg/mL ampicillin. Two hundred microliters of diluted E. coli suspension per well were transferred to 96-well plates and different agents were added in the appropriate concentration, then incubated in a shaker (600 rpm) for 3 h at 37 °C. Test compounds were dissolved in 3-fold amounts of dimethyl sulfoxide (DMSO). […] For induction of the GFP expression IPTG (0.1 mM final concentration) was added to each well and incubated for 3 h at 37 °C.
(§3) The following incubation samples were centrifuged at 2750 rpm at room temperature (RT) for 5 min and washed twice with 200 µL PBS, with a centrifugation step between the two washes. After a third centrifugation step, the bacterial cells were suspended in 100 µL PBS. The number of bacteria was estimated according to the fluorimetric measurements. The fluorescence of the bacterial cells was measured by the Victor™ 1420 Multilabel Counter (Perkin Elmer, Waltham, MA, USA) at 485/535 nm for 1 sec per well controlled by Wallac 1420 Manager software. Each treatment was repeated in at least 2 wells per plate during the experiments. Percentage fluorescence intensity based on the quantity of E. coli-GFP cells was calculated using untreated control values as 100%. Error was represented by standard deviation (SD).

[2] = tested on: E. coli-GFP; test: Antibacterial activity on GFP producing Gram-negative bacteria (fluorimetry); type: cell-based, Escherichia coli; details: GFP fluorescence, 1–30 µM tested, mean ± SD
Protocol: as §1, §2, §3

[3] = in vitro; details: human
Protocol: (§4) Cells were purchased from the American Type Culture Collection (ATCC, Manassas, VA, USA). Human lung adenocarcinoma A549 cells were maintained in Dulbecco's Modified Eagle Medium (DMEM), while mouse fibroblast NIH/3T3 and human promyelocytic leukemia HL-60 cells were maintained in Roswell Park Memorial Institute 1640 medium (RPMI-1640) containing 10% FCS. Media were supplemented with 2 mM GlutaMAX, 100 U/mL penicillin, and 100 µg/mL streptomycin (Life Technologies, Carlsbad, California, USA). Cell cultures were maintained at 37 °C in a humidified incubator in an atmosphere of 5% CO2 (Sanyo, Japan).
(§5) Cytotoxicity of the synthesized molecules was determined on A549, NIH/3T3 and HL-60 cells using the fluorescent Resazurin assay as described previously [46].
(§6) Briefly, cells (A549 and NIH/3T3: 6000, HL-60: 120.000 cells/well) were seeded into 96-well plates (Corning Life Sciences) in media and incubated overnight. Test compounds were dissolved in three-fold amounts of dimethyl sulfoxide (DMSO). Cells were treated with an increasing concentration of test compounds (1–30 µM). […] Cell viability was determined after 72 h incubation. Resazurin reagent (Sigma-Aldrich) was added at a final concentration of 25 µg/mL. After a 2 h incubation at 37 °C in 5% CO2, fluorescence (530 nm excitation/580 nm emission) was recorded on a multimode microplate reader (Cytofluor4000, PerSeptive Biosytems). Viability was calculated with relation to untreated control cells and blank wells containing media without cells. […] A Student’s t test was performed for individual test compound concentrations with relation to untreated control cell viability values.

[4] = in vitro; details: mouse
Protocol: as §4, §5, §6

[5] = In vitro cytotoxicity, fluorescent Resazurin assay; details: human, HL-60 cells (human promyelocytic leukemia), In Vitro Cytotoxicity (IC50, µM) HL-60, 72 h incubation, 1–30 µM tested, mean ± SD
Protocol: as §4, §5, §6

[6] = tested on: HL-60 cells (human promyelocytic leukemia)
Protocol: as §4, §5, §6

[7] = tested on: HL-60 cells (human promyelocytic leukemia); test: In vitro cytotoxicity, fluorescent Resazurin assay
Protocol: as §4, §5, §6

[8] = in vitro; details: human, In Vitro Cytotoxicity (IC50, µM) HL-60, 72 h incubation, 1–30 µM tested, mean ± SD
Protocol: as §4, §5, §6

[9] = tested on: A549 cells (human lung adenocarcinoma)
Protocol: as §4, §5, §6

[10] = tested on: NIH/3T3 cells (mouse fibroblast)
Protocol: as §4, §5, §6

[11] = A549 cells (human lung adenocarcinoma)
[12] = NIH/3T3 cells (mouse fibroblast)
[13] = read-out: In Vitro Cytotoxicity (IC50, µM) HL-60, 72 h incubation, 1–30 µM tested, mean ± SD

Compound	IC50 ([1]; Bacillus subtilis) [µM]	IC50 ([2]; Escherichia coli) [µM]	IC50 at 72 h [3, 11] [µM]	IC50 at 72 h [4, 12] [µM]	IC50 at 72 h [5] [µM]	IC50 at 72 h [3] [µM]	IC50 at 72 h [4] [µM]	other results
CC(C)OP(=O)(OC(C)C)c1c(-c2ccccc2)nnn1Cc1ccccc1 [Compound 14, Diisopropyl (1-benzyl-4-phenyl-1,2,3-triazol-5-yl)phosphonate]	> 30	> 30	> 30	> 30	> 30	–	–	–
CCCCOP(=O)(OCCCC)c1c(-c2ccccc2)nnn1Cc1ccc(C)cc1 [Compound 18, Dibutyl [1-(4-methylbenzyl)-4-phenyl-1,2,3-triazol-5-yl]phosphonate]	18.2 ± 1	> 30	> 30	> 30	> 30	–	–	–
CC(C)C[C@H](NC(=O)[C@H](Cc1ccccc1)NC(=O)c1cnccn1)B(O)O [Bortezomib, reference compound]	–	–	–	–	–	–	–	In Vitro Cytotoxicity (IC50, µM) HL-60 [6]: 7.42 × 10^−3 2.60 × 10^−3 µM; IC50 ([7]; Homo sapiens, HL-60, 72 h, read-out: IC50 for HL60 (positive control), 72 h incubation, value in nM): 7.42 ± 2.6 nM
CCCCCOP(=O)(OCCCCC)c1c(-c2ccccc2)nnn1Cc1ccccc1 [Compound 15, Dipentyl (1-benzyl-4-phenyl-1,2,3-triazol-5-yl)phosphonate]	23.9 ± 1	> 30	> 30	26.2 ± 1.1	15.4 ± 1.2	–	–	–
CCCCOP(=O)(OCCCC)c1c(-c2ccccc2)nnn1Cc1cccc(F)c1 [Compound 20, Dibutyl [1-(3-fluorobenzyl)-4-phenyl-1,2,3-triazol-5-yl]phosphonate]	> 30	> 30	> 30	> 30	15.4 ± 1.2	–	–	–
CCCCCCCCn1nnc(-c2ccccc2)c1P(=O)(OC)OC [Compound 23, Dimethyl (1-octyl-4-phenyl-1,2,3-triazol-5-yl)phosphonate]	> 30	> 30	–	–	–	> 30	> 30	IC50 at 72 h [8]: > 30 µM
COP(=O)(OC)c1c(-c2ccccc2)nnn1Cc1ccc(C)cc1 [Compound 16, Dimethyl [1-(4-methylbenzyl)-4-phenyl-1,2,3-triazol-5-yl]phosphonate]	> 30	> 30	–	–	–	> 30	19.8 ± 1.2	IC50 at 72 h [8]: ~10 µM; IC50 [7, 13]: 11000 ± 1200 nM
CCOP(=O)(OCC)c1c(-c2ccccc2)nnn1Cc1ccc(C)cc1 [Compound 17, Diethyl [1-(4-methylbenzyl)-4-phenyl-1,2,3-triazol-5-yl]phosphonate]	> 30	> 30	–	–	–	> 30	> 30	IC50 at 72 h [8]: > 30 µM
CCCCCCCCn1nnc(-c2ccccc2)c1P(=O)(OCC)OCC [Compound 24, Diethyl (1-octyl-4-phenyl-1,2,3-triazol-5-yl)phosphonate]	> 30	> 30	–	–	–	> 30	> 30	IC50 at 72 h [8]: > 30 µM
COc1cccc2c1C(=O)c1c(O)c3c(c(O)c1C2=O)C[C@@](O)(C(=O)CO)C[C@@H]3O[C@H]1C[C@H](N)[C@H](O)[C@H](C)O1 [Doxorubicin, reference compound]	–	–	–	–	–	0.31 ± 0.24	5.65 ± 0.81	–
CCOP(=O)(OCC)c1c(-c2ccccc2)nnn1Cc1ccccc1 [Compound 12, Diethyl (1-benzyl-4-phenyl-1,2,3-triazol-5-yl)phosphonate]	> 30	> 30	–	–	–	> 30	> 30	IC50 at 72 h [8]: > 30 µM
CCCCOP(=O)(OCCCC)c1c(-c2ccccc2)nnn1Cc1ccccc1 [Compound 8, Dibutyl (1-benzyl-4-phenyl-1,2,3-triazol-5-yl)phosphonate]	> 30	> 30	> 30	27.5 ± 1.4	> 30	–	–	–
CCCCOP(=O)(OCCCC)c1c(-c2ccccc2)nnn1Cc1ccc(F)cc1 [Compound 21, Dibutyl [1-(4-fluorobenzyl)-4-phenyl-1,2,3-triazol-5-yl]phosphonate]	23.2 ± 1.1	> 30	> 30	> 30	16.6 ± 1.3	–	–	–
CCCCCCCCn1nnc(-c2ccccc2)c1P(=O)(OCCCC)OCCCC [Compound 25, Dibutyl (1-octyl-4-phenyl-1,2,3-triazol-5-yl)phosphonate]	> 30	> 30	> 30	> 30	> 30	–	–	–
CCCOP(=O)(OCCC)c1c(-c2ccccc2)nnn1Cc1ccccc1 [Compound 13, Dipropyl (1-benzyl-4-phenyl-1,2,3-triazol-5-yl)phosphonate]	29.3 ± 1.2	> 30	> 30	> 30	12.6 ± 1.7	–	–	–
C[C@H]1c2cccc(O)c2C(=O)C2=C(O)[C@]3(O)C(=O)C(C(N)=O)=C(O)[C@@H](N(C)C)[C@@H]3[C@@H](O)[C@@H]21 [Doxycycline, reference compound]	0.04 ± 0.01	0.1 ± 0.02	–	–	–	–	–	–
COP(=O)(OC)c1c(-c2ccccc2)nnn1Cc1ccccc1 [Compound 11, Dimethyl (1-benzyl-4-phenyl-1,2,3-triazol-5-yl)phosphonate]	> 30	> 30	–	–	–	> 30	> 30	IC50 at 72 h [8]: > 30 µM
Dibutyl (1-isooctyl-4-phenyl-1,2,3-triazol-5-yl)phosphonate [Compound 26]	–	–	–	–	–	–	–	IC50 [1]: 29.6 ± 1 µM; IC50 [2]: > 30 µM; IC50 [9]: > 30 µM; IC50 [10]: > 30 µM; IC50 [7, 13]: 26700 ± 1000 nM
CCCCOP(=O)(OCCCC)c1c(-c2ccccc2)nnn1Cc1ccccc1F [Compound 19, Dibutyl [1-(2-fluorobenzyl)-4-phenyl-1,2,3-triazol-5-yl]phosphonate]	19.3 ± 1	> 30	> 30	27.5 ± 1.1	11.7 ± 1.2	–	–	–
CCCCOP(=O)(OCCCC)c1c(-c2ccccc2)nnn1Cc1ccc(C(F)(F)F)cc1 [Compound 22, Dibutyl [1-(4-trifluoromethyl)-4-phenyl-1,2,3-triazol-5-yl]phosphonate]	> 30	> 30	> 30	23.1 ± 1.2	~10	–	–	IC50 [7, 13]: 9700 ± 1100 nM
CNC(C)C1CCC(N)C(OC2C(N)CC(N)C(OC3OCC(C)(O)C(NC)C3O)C2O)O1 (centres unmarked) [Gentamicin, reference compound]	0.49 ± 0.14	4.23 ± 0.99	–	–	–	–	–	–
